These results are taken from ChEMBL document CHEMBL5036375, “Malaria Box-Inspired Discovery of N-Aminoalkyl-β-carboline-3-carboxamides, a Novel Orally Active Class of Antimalarials” (ACS Med Chem Lett, 2022).

In data set [1] the test system is Plasmodium falciparum. In words: Antimalarial activity against synchronized Plasmodium falciparum Dd2 (MRA-150) infected in human O-postive erythrocytes assessed as reduction in parasite growth after 72 hrs by SYBR green I staining based fluorescence assay. The format is functional, organism-based.
In data set [2] the test system is Plasmodium falciparum. In words: Antimalarial activity against Plasmodium falciparum W2 infected in human O-postive erythrocytes measured after 72 hrs by SYBR green I staining based fluorescence assay. Particulars: W2, 72 h. The format is functional, organism-based.
The nature of data set [3]: Lipophilicity, logD of the compound between 1-octanol and PBS pH 7.4 at 10 mM by LC-MS analysis. It is filed as physicochemical. The following applies: 1-octanol/PBS.
A short description of data set [4]: Stability in CD-1 mouse plasma at 1 hour by LC-MS analysis a. The following applies: read-out: Stability. The format is ADME, cell-free.
In another data set the test system is Hepatocyte. Description: Cytotoxicity against human hepatocytes measured after 96 hrs by DAPI staining based fluroscence assay. It is filed as functional.
Data set [5] in a line: Half life in rat plasma 40 mg/kg, po. It is filed as ADME, organism-based.
The nature of data set [6]: Toxicity in mouse infected with Plasmodium berghei ANKA assessed as lethargy at 40 mg/kg, po measured after 4 days. Particulars: in vivo, 96 h, time 4 day. It is filed as organism-based.
Data set [7] relates to Plasmodium falciparum. In words: Antimalarial activity against KAE609 resistant Plasmodium falciparum Dd2 infected in human O-postive erythrocytes measured after 72 hrs by SYBR green I staining based fluorescence assay. The following applies: Dd2, 72 h. It is filed as functional, organism-based.
In data set [8] the test system is Plasmodium falciparum. In words: Antimalarial activity against synchronized Plasmodium falciparum Dd2 (MRA-150) infected in human O-postive erythrocytes in presence of IPP assessed as reduction in parasite growth at 2.5 uM measured after 72 hrs by SYBR green I staining based fluorescence assay relative to control. The format is functional. The arrangement: scale not given: the % may be the effect or the level left.

Data set [9] concerns Plasmodium falciparum. Description: Antimalarial activity against Plasmodium falciparum 3D7 (MRA-102) infected in human O-postive erythrocytes measured after 72 hrs by SYBR green I staining based fluorescence assay. The format is functional, organism-based. The following applies: 3D7 MRA-102, 72 h.
Data set [10] in a line: Toxicity in mouse infected with Plasmodium berghei ANKA assessed as behavioural changes at 40 mg/kg, po measured after 4 days. The format is organism-based. The following applies: in vivo, 96 h, time 4 day.
In data set [11] the test system is Plasmodium berghei. Description: Antimalarial activity against Plasmodium berghei ANKA expressing luciferase, PbGFP-Luccon infected in mouse assessed as reduction in parasitemia at 40 mg/kg, po measured after 4 days by luminescence assay. It is filed as functional, organism-based. The following applies: time 4.0 day.
Data set [12] is described as follows: Cmax in rat at 40 mg/kg, po. The format is ADME, organism-based. Also noted: route oral, dose 40 mg/kg. The following applies: in vivo.
Data set [13] in a line: Toxicity in mouse infected with Plasmodium berghei ANKA assessed as ruffled fur at 40 mg/kg, po measured after 4 days. The format is organism-based. Particulars: in vivo, 96 h, time 4 day.
The nature of data set [14]: Toxicity in mouse infected with Plasmodium berghei ANKA assessed as gait at 40 mg/kg, po measured after 4 days. Particulars: in vivo, 96 h, time 4 day. It is filed as organism-based.
Data set [15] can be described thus: Oral bioavailability in rat at 40 mg/kg. The format is ADME, organism-based. The following applies: in vivo.
The nature of data set [16]: Volume of distribution in rat at 10 mg/kg , iv. Particulars: in vivo. The format is ADME, organism-based.
Data set [17] is described as follows: Toxicity in mouse infected with Plasmodium berghei ANKA assessed as weight loss at 40 mg/kg, po measured after 4 days. The format is organism-based. The following applies: in vivo, 96 h, time 4 day.
Data set [18] relates to Plasmodium falciparum. Description: Antimalarial activity against Plasmodium falciparum 3D7 (MRA-102) incubated for 72 hrs by Lactate dehydrogenase activity. The format is functional, organism-based. Particulars: 3D7 MRA-102, 72 h.
Another data set concerns Escherichia coli. Description: Antibacterial activity against Escherichia coli (BL21) assessed as bacterial growth after 18 hrs by g a cell density meter. The format is functional.
Data set [19] has as its system Plasmodium falciparum. Description: Antimalarial activity against Plasmodium falciparum 3D7A incubated for 48 hrs by [3H]-hypoxanthine incorporation assay. It is filed as functional, organism-based. Particulars: 3D7.
The nature of data set [20]: Thermodynamic solubility of PBS at pH 7.4 by LC-MS analysis. The format is physicochemical. Particulars: read-out: Therm_solubility.
In data set [21] the target is Voltage-gated inwardly rectifying potassium channel KCNH2 (Homo sapiens, UniProt Q12809). In words: Inhibition of human ERG expressed in HEK-293 cells by patch clamp method. It is filed as cell-based, HEK293. A general note: In patch-clamp work, channel activity is measured electrically.
A further data set has as its system HEK293. Description: Cytotoxicity against human HEK293 cells by resazurin based cell viability assay. The format is functional. A general note: The colour change of resazurin is a common sign of viable cells or microbes.
Data set [22] has as its system Plasmodium falciparum. In words: Antimalarial activity against Plasmodium falciparum 4G infected in human O-postive erythrocytes measured after 72 hrs by SYBR green I staining based fluorescence assay. The format is functional, organism-based.
Data set [23] in a line: Half life in CD-1 mouse liver microsomes after 60 mins by LC-MS analysis. It is filed as ADME, Microsome. A general note: Liver microsomes are vesicles of endoplasmic reticulum, rich in cytochrome P450 enzymes.
Data set [24] has as its system Plasmodium berghei. In words: Antimalarial activity against Plasmodium berghei ANKA expressing luciferase, PbGFP-Luccon infected in mouse assessed as reduction in parasitemia at 20 mg/kg, po measured after 4 days by luminescence assay. It is filed as functional, organism-based. The following applies: time 4.0 day.
For data set [25], the system named is Plasmodium falciparum. Description: Antimalarial activity against synchronized Plasmodium falciparum Dd2 (MRA-150) infected in human O-postive erythrocytes in presence of IPP assessed as reduction in parasite growth at 5 uM measured after 72 hrs by SYBR green I staining based fluorescence assay relative to control. Also noted: scale not given: the % may be the effect or the level left. The format is functional.

What is called EC50 is the midpoint of the concentration-response curve. Broadly, the logD is lipophilicity at a set pH, counting ionised and neutral species. The CC50 is the concentration giving 50% cytotoxicity. As usually defined, the half-life is how long it takes for the measured level to halve. The Cmax is the highest concentration seen after dosing. In general, bioavailability refers to dose-corrected exposure relative to a reference, in per cent. A word on the Vd: it is a proportionality between amount in the body and measured concentration, not a real space. The term IC50 denotes the concentration at which inhibition is half-maximal. A word on the MIC: it is the smallest concentration in the dilution series that meets the test's criterion for growth inhibition.

Active and inactive are the calls of the source.

Chain of Voltage-gated inwardly rectifying potassium channel KCNH2 (Q12809 whole entry): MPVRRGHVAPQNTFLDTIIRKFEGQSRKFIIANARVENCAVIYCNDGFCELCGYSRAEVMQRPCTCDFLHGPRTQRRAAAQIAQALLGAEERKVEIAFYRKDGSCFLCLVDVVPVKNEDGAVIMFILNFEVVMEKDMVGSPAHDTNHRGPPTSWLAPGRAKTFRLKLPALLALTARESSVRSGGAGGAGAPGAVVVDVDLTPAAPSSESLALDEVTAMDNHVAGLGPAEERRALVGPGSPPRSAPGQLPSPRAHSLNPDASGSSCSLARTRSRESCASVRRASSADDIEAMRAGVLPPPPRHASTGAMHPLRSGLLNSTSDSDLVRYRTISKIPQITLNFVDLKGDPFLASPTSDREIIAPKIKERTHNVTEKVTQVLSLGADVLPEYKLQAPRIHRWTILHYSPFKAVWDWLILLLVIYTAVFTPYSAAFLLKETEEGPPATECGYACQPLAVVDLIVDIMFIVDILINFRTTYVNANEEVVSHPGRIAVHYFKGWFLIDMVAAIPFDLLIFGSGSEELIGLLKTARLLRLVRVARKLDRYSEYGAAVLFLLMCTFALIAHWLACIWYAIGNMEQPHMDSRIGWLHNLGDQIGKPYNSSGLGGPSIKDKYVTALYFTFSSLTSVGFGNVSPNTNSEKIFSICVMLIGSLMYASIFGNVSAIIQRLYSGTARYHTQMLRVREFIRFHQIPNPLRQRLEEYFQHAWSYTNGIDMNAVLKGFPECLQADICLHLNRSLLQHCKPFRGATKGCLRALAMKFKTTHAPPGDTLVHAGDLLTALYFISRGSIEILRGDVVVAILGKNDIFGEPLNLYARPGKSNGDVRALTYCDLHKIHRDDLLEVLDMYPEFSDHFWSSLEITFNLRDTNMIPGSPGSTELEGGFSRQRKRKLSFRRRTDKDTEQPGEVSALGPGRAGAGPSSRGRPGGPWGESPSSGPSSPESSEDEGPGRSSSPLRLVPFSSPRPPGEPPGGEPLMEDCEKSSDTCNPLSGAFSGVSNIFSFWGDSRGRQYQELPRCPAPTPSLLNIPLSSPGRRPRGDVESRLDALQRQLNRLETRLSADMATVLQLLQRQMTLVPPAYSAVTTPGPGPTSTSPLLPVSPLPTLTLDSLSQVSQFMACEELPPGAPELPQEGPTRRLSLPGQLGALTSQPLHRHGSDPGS

With `Cc1cccc2c1[nH]c1c(-c3ccc(Cl)c(Cl)c3)nc(C(=O)NCCN)cc12`, the EC50 with Plasmodium falciparum [1] was 263 nM.

Consider `CNC(=O)c1cc2c([nH]c3c(C)cccc32)c(-c2ccc(Cl)c(Cl)c2)n1`, for which the EC50 in the data set with Plasmodium falciparum [1] was more than 10000 nM.

On to `CNCCNC(=O)c1cc2c([nH]c3c(C)cccc32)c(-c2ccc(Cl)c(Cl)c2)n1.Cl`, for which the EC50 amounted to 100 nM with Plasmodium falciparum [2]; 101 nM with Plasmodium falciparum [7]; 53 nM in the data set with Plasmodium falciparum [9]; 108 nM in the data set with Plasmodium falciparum [1]; 110 nM with Plasmodium falciparum [22]. In data set [3], this compound had a logD at 10000 µM of 3.3. In addition, the remaining at 1 h in data set [4] amounted to 100%. Moreover, the values for the CC50 in the data set with Hepatocyte and with HEK293 were 8500 nM and 32000 nM, respectively. Further, the half-life in data set [5] is 8 h; in data set [23], 1.83 h. The Activity result is on record as “Non-Toxic” in data set [6]; 0% with Plasmodium falciparum [8]; “Non-Toxic” in data set [10]; “Non-Toxic” in data set [13]; “Non-Toxic” in data set [14]; “Non-Toxic” in data set [17]. Further, the result in the data set with Plasmodium berghei [11] was Active. In [12], this compound showed a Cmax of 800 nM. In data set [15], this compound had a bioavailability of 40%. The same compound yielded a Vd in data set [16] of 21.8 L/kg. Moreover, the IC50 in the data set with Plasmodium falciparum [18] came out at 117 nM; in the data set with Plasmodium falciparum [19], 70 nM; in [21], 510 nM. The MIC in the data set on Escherichia coli is more than 250 µM. Also, the solubility thermodynamic in data set [20] was found to be 9.5 µM. Further, the outcome in the data set on Plasmodium berghei [24] was inactive.

Regarding `CNCCNC(=O)c1cc2c([nH]c3c(C)cccc32)c(-c2cccc(Cl)c2)n1`, in the data set with Plasmodium falciparum [1], the EC50 is 342 nM.

`Cc1cccc2c1[nH]c1c(-c3ccc(Cl)c(Cl)c3)nc(C(=O)NCCO)cc12`: the half-maximal effective concentration (EC50) in the data set with Plasmodium falciparum [1] was 3270 nM.

Regarding `CNCCNC(=O)c1cc2c([nH]c3ccccc32)c(-c2ccc(Cl)cc2)n1`, the EC50 in the data set with Plasmodium falciparum [1] was 496 nM.

For `CNCCNC(=O)[C@@H]1Cc2c([nH]c3c(C)cccc23)[C@@H](c2ccc(Cl)cc2Cl)N1`, in the data set with Plasmodium falciparum [1], the EC50 is 1950 nM. For the same compound, the Activity in the data set with Plasmodium falciparum [25] worked out at 50%.

Turning to `CNCCNC(=O)c1cc2c([nH]c3ccccc32)c(-c2ccc(Cl)c(Cl)c2)n1`, in the data set on Plasmodium falciparum [1], the EC50 was found to be 277 nM.

For `CNCCNC(=O)c1cc2c([nH]c3c(C)cccc32)c(-c2ccccc2)n1`, the EC50 in the data set on Plasmodium falciparum [1] came out at 4000 nM.

As for `CCN(CC)CCCC(C)Nc1ccnc2cc(Cl)ccc12` (configuration not stated), the outcome in the data set with Plasmodium berghei [11] was Active.

On to `CNCCNC(=O)c1cc2c([nH]c3c(C)cccc32)c(-c2ccc(Cl)cc2)n1`, for which the EC50 in the data set on Plasmodium falciparum [1] is 274 nM.

As to `CNCCNC(=O)[C@H]1Cc2c([nH]c3c(C)cccc23)[C@@H](c2ccc(Cl)cc2Cl)N1`, the EC50 in the data set with Plasmodium falciparum [1] is 1430 nM.

For `CNCCNC(=O)[C@@H]1Cc2c([nH]c3c(C)cccc23)[C@H](c2ccc(Cl)cc2Cl)N1`, the EC50 with Plasmodium falciparum [1] worked out at 1300 nM.

As to `Cc1cccc2c1[nH]c1c(-c3ccc(Cl)c(Cl)c3)nc(C(=O)O)cc12`, the EC50 with Plasmodium falciparum [1] is more than 10000 nM.

As for `Cc1cccc2c1[nH]c1c(-c3ccc(Cl)c(Cl)c3)nc(C(=O)NCCCN(C)C)cc12`, the EC50 in the data set on Plasmodium falciparum [1] was 240 nM.

As for `Cc1cccc2c1[nH]c1c(-c3ccc(Cl)c(Cl)c3)nc(C(=O)NCCCN)cc12`, the EC50 with Plasmodium falciparum [1] turned out to be 726 nM.

With `CNCCNC(=O)c1cc2c([nH]c3ccccc32)c(-c2cccc(Cl)c2)n1`, the EC50 in the data set on Plasmodium falciparum [1] came to 641 nM.

On to `CNCCNC(=O)[C@H]1Cc2c([nH]c3c(C)cccc23)[C@H](c2ccc(Cl)cc2Cl)N1`, for which the EC50 with Plasmodium falciparum [1] is 3690 nM.

For `COC(=O)c1cc2c([nH]c3c(C)cccc32)c(-c2ccc(Cl)c(Cl)c2)n1`, the EC50 in the data set with Plasmodium falciparum [1] was more than 10000 nM.

For the compound `CCCCNC(=O)c1cc2c([nH]c3c(C)cccc32)c(-c2ccc(Cl)c(Cl)c2)n1`, the EC50 with Plasmodium falciparum [1] worked out at 1020 nM.

For `CNCCCNC(=O)c1cc2c([nH]c3c(C)cccc32)c(-c2ccc(Cl)c(Cl)c2)n1`, the EC50 in the data set with Plasmodium falciparum [1] came to 217 nM.

Consider `CNCCNC(=O)c1cc2c([nH]c3ccccc32)c(-c2ccccc2)n1`, for which the EC50 in the data set with Plasmodium falciparum [1] worked out at 2500 nM.

With `O=C(O)[C@@H]1Cc2c([nH]c3ccccc23)[C@@H](c2ccc(Cl)cc2Cl)N1`, in the data set on Plasmodium falciparum [8], the Activity is on record as 100%.

Regarding `CNCCNC(=O)c1cc2c([nH]c3c(C)cccc32)c(-c2ccc(Cl)cc2Cl)n1`, in the data set on Plasmodium falciparum [1], the EC50 is 583 nM.

With `Cc1cccc2c1[nH]c1c(-c3ccc(Cl)c(Cl)c3)nc(C(=O)NCCN(C)C)cc12`, in the data set on Plasmodium falciparum [1], the EC50 worked out at 264 nM.
